Measurements from ChEMBL document CHEMBL6177957, “Macrocyclic dihydropyridine analogs as pan-BET BD2-preferred inhibitors” (Eur J Med Chem, 2025).
Activity calls are given as the source filed them. The calls are words filed in the database; no cut-off is given here.

What was measured:
MM1.S = assay: Downregulation of c-MYC expression in human MM1.S cells measured after 6 hrs by Western blotting analysis; assay type: functional, cell-based; conditions: dose 0.1-10 µM
[1] = molecular target: T1, Bromodomain testis-specific protein (Homo sapiens, UniProt Q58F21); assay: Binding affinity to N-terminal hexa histidine-tagged human BRDT BD1 extracted from Escherichia coli BL21 (DE3) cells assessed as inhibition constant incubated for 1 hrs by fluorescence polarization assay
[2] = molecular target: T2, Bromodomain-containing protein 4 (Homo sapiens, UniProt O60885); assay: Binding affinity to N-terminal hexa histidine-tagged human BRD4 BD1 extracted from Escherichia coli BL21 (DE3) cells assessed as inhibition constant incubated for 1 hrs by fluorescence polarization assay
[3] = molecular target: T1, Bromodomain testis-specific protein; conditions: dose 100.0 µM, time 30.0 min
[4] = molecular target: T1, Bromodomain testis-specific protein; conditions: dose 100.0 µM, time 30.0 min; remark: listed apart in the source
[5] = molecular target: T1, Bromodomain testis-specific protein; assay: Binding affinity to BRDT BD2 (unknown origin) at W293 residue
[6] = molecular target: T2, Bromodomain-containing protein 4; assay: Binding affinity to BRD4 BD2 (unknown origin) assessed as dissociation constant by BROMOscan analysis
[7] = molecular target: T1, Bromodomain testis-specific protein; assay: Binding affinity to BRDT BD2 (unknown origin) assessed as dissociation constant by BROMOscan analysis
[8] = molecular target: T1, Bromodomain testis-specific protein; assay: Binding affinity to BRDT BD1 (unknown origin) assessed as dissociation constant by BROMOscan analysis
[9] = molecular target: T2, Bromodomain-containing protein 4; assay: Binding affinity to BRD4 BD1 (unknown origin) assessed as dissociation constant by BROMOscan analysis

SMILES | Ki [1] [nM] | further results
Cc1sc2c(c1C)C(c1ccc(Cl)cc1)=N[C@@H](CC(=O)OC(C)(C)C)c1nnc(C)n1-2 |  | Activity (MM1.S): Dose-dependent-effect
CCn1c2c(c(=O)[nH]c1=O)C1C(=C(C)N2)C(=O)OCc2ccccc2OCCOc2cc1ccc2C (stereo not drawn) | > 3800 | 
CCn1c2c(c(=O)[nH]c1=O)C1C(=C(C)N2)C(=O)OCCCOc2cc(C)ccc21 (stereo not drawn) | 8100 | 
CCn1c2c(c(=O)[nH]c1=O)C1C(=C(C)N2)C(=O)OCc2cccc(c2)OCCCOc2cc1ccc2C (stereo not drawn) | > 3800 | Ki [2]: > 3800 nM
CCn1c2c(c(=O)[nH]c1=O)C1C(=C(C)N2)C(=O)OCc2ccccc2OCCCOc2ccccc21 (stereo not drawn) | 1100 | ΔTm [3]: 13 °C; ΔTm [4]: 2.8 °C; Activity [5]: Active
CCn1c2c(c(=O)[nH]c1=O)C1C(=C(C)N2)C(=O)OCc2ccccc2OCCOc2cc(C)ccc21 (stereo not drawn) |  | Activity (MM1.S): Dose-dependent-effect; ΔTm [3]: 8.9 °C; ΔTm [4]: 3.4 °C
CCn1c2c(c(=O)[nH]c1=O)C1C(=C(C)N2)C(=O)OCCCOc2ccccc21 (stereo not drawn) | 9200 | 
CCn1c2c(c(=O)[nH]c1=O)C1C(=C(C)N2)C(=O)NCc2ccccc2OCCCOc2ccccc21 (stereo not drawn) | > 3800 | Ki [2]: > 3800 nM
CCn1c2c(c(=O)[nH]c1=O)C1C(=C(C)N2)C(=O)OCc2ccccc2OCCOc2cccc1c2 (stereo not drawn) | > 3800 | 
CCn1c2c(c(=O)[nH]c1=O)C1C(=C(C)N2)C(=O)OCc2ccccc2OCCOc2ccccc21 (stereo not drawn) | 5300 | 
CCn1c2c(c(=O)[nH]c1=O)C1C(=C(C)N2)C(=O)OCc2ccccc2OCCCOc2cc1ccc2C (stereo not drawn) | 12000 | 
CCn1c2c(c(=O)[nH]c1=O)C1C(=C(C)N2)C(=O)OCc2ccccc2OCCCCOc2ccccc21 (stereo not drawn) | 1900 | 
CCn1c2c(c(=O)[nH]c1=O)C1C(=C(C)N2)C(=O)OCCCCOc2ccccc21 (stereo not drawn) | 11000 | 
CCn1c2c(c(=O)[nH]c1=O)C(c1ccc(C)cc1)C(C(=O)OCc1ccccc1)=C(C)N2 (stereo not drawn) | 40 | Kd [6]: 65 nM; Kd [7]: 67 nM; Ki [2]: 150 nM; Kd [8]: 770 nM; Kd [9]: 380 nM
CCn1c2c(c(=O)[nH]c1=O)C1C(=C(C)N2)C(=O)OCCCCOc2cc(C)ccc21 (stereo not drawn) | 1700 | 
CCn1c2c(c(=O)[nH]c1=O)C1C(=C(C)N2)C(=O)OCc2ccccc2OCCCOc2cc(C)ccc21 (stereo not drawn) | 1300 | 
